From ChEMBL document CHEMBL1201862, “PubChem BioAssay data set” (2004)
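Tested at 5 concentrations; 48 h exposure; 96-well plates; endpoints linearly interpolated, else capped at highest concentration. At the GI50, growth is halved.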 Active and inactive are the calls of the source. No stated cut-off is given here; in the data, active = GI50 up to about 1.1 µM and inactive = higher.

Experiments:
Assay in all cases: NCI anticancer screen, dose series, 48 h
[1] = system: SK-MEL-28
[2] = system: COLO 205
[3] = system: SF-539
[4] = system: OVCAR-5
[5] = system: K562
[6] = system: CCRF-CEM
[7] = system: HT-29
[8] = system: TK-10
[9] = system: SK-MEL-2
[10] = system: HOP-92
[11] = system: LOX IMVI
[12] = system: HL-60
[13] = system: Malme-3M
[14] = system: OVCAR-3
[15] = system: SR
[16] = system: HCT-15
[17] = system: CAKI-1
[18] = system: DU-145
[19] = system: MDA-MB-231
[20] = system: MDA-N

SMILES | GI50 [1] | GI50 [2] | GI50 [3] | GI50 [4] | GI50 [5] | GI50 [6] | GI50 [7] | GI50 [8] | GI50 [9] | GI50 [10] | GI50 [11] | GI50 [12] | GI50 [13] | GI50 [14] | GI50 [15] | GI50 [16] [µM] | GI50 [17] | GI50 [18] | GI50 [19] | GI50 [20]
CC(C)(Br)C1(O)CCCN1C(=O)c1ccccc1 (stereo unspecified) | > 100 µM (inactive) | > 100 µM (inactive) | > 100 µM (inactive) | > 100 µM (inactive) | 33 µM (inactive) | > 100 µM (inactive) | > 100 µM (inactive) | > 100 µM (inactive) | > 100 µM (inactive) | > 100 µM (inactive) | > 100 µM (inactive) | > 100 µM (inactive) | > 100 µM (inactive) | > 100 µM (inactive) | > 100 µM (inactive) | > 100 |  |  |  | 
COc1cccc(C2C(C(=O)O)=C(CO)Oc3cc4c(cc32)OCO4)c1 (stereo unspecified) | > 100 µM (inactive) | > 100 µM (inactive) | > 100 µM (inactive) |  | > 100 µM (inactive) | > 100 µM (inactive) | > 100 µM (inactive) | > 100 µM (inactive) | > 100 µM (inactive) | > 100 µM (inactive) | > 100 µM (inactive) | > 100 µM (inactive) | > 100 µM (inactive) | > 100 µM (inactive) |  | > 100 | > 100 µM (inactive) |  |  | 
Brc1cccc(Nc2ncnc3sc4c(c23)CCC(Nc2cccc(Br)c2)C4)c1 (stereo unspecified) | > 100 µM (inactive) | > 100 µM (inactive) |  | > 100 µM (inactive) | > 100 µM (inactive) | > 100 µM (inactive) | > 100 µM (inactive) | > 100 µM (inactive) | > 100 µM (inactive) | 26.2 µM (inactive) | > 100 µM (inactive) |  | > 100 µM (inactive) | > 100 µM (inactive) |  | > 100 | 79.8 µM (inactive) | > 100 µM (inactive) | > 100 µM (inactive) | > 100 µM (inactive)
C=COCCCOc1ccccc1 | > 100 µM (inactive) | > 100 µM (inactive) | > 100 µM (inactive) | > 100 µM (inactive) | > 100 µM (inactive) | > 100 µM (inactive) | > 100 µM (inactive) | > 100 µM (inactive) | > 100 µM (inactive) |  | > 100 µM (inactive) | > 100 µM (inactive) | > 100 µM (inactive) | > 100 µM (inactive) | > 100 µM (inactive) | > 100 | > 100 µM (inactive) |  |  | 
CCOc1c(/N=N/c2ccccc2Cl)c(-c2ccccc2)nn1C(=S)S | > 100 µM (inactive) | 21.4 µM (inactive) | 14.2 µM (inactive) | 61 µM (inactive) | 19 µM (inactive) |  | 25.2 µM (inactive) | 77.6 µM (inactive) | 34.8 µM (inactive) | 54 µM (inactive) | 19.9 µM (inactive) | 33.6 µM (inactive) | 37.2 µM (inactive) | 25 µM (inactive) | 26.5 µM (inactive) | 23.1 | 18.7 µM (inactive) | > 100 µM (inactive) | 15.7 µM (inactive) | 
CCOC(=O)C(=O)Nc1cccc(C)c1C | > 100 µM (inactive) | > 100 µM (inactive) | > 100 µM (inactive) | > 100 µM (inactive) | > 100 µM (inactive) | > 100 µM (inactive) | > 100 µM (inactive) | > 100 µM (inactive) | > 100 µM (inactive) | > 100 µM (inactive) |  | > 100 µM (inactive) | > 100 µM (inactive) | > 100 µM (inactive) | > 100 µM (inactive) | > 100 | > 100 µM (inactive) |  |  | 
CCCCNC1=C2C(=O)NN=C2CO1 | > 100 µM (inactive) | > 100 µM (inactive) | > 100 µM (inactive) | > 100 µM (inactive) | > 100 µM (inactive) | > 100 µM (inactive) | > 100 µM (inactive) | > 100 µM (inactive) | > 100 µM (inactive) | > 100 µM (inactive) | > 100 µM (inactive) | > 100 µM (inactive) |  |  | > 100 µM (inactive) | > 100 | > 100 µM (inactive) |  |  | 
COc1cccc(/C=C/C(=O)N2CC(CCl)c3c2cc(N)c2ccccc32)c1 (stereo unspecified) | 0.0114 µM (active) | 0.0146 µM (active) |  | 0.00804 µM (active) | < 0.01 µM (active) | < 0.01 µM (active) | < 0.01 µM (active) | 0.00314 µM (active) | 0.00834 µM (active) | 0.0993 µM (active) | 0.000548 µM (active) | < 0.01 µM (active) | < 0.01 µM (active) | < 0.01 µM (active) |  | 0.034 | 0.000566 µM (active) | 0.00018 µM (active) | 0.0039 µM (active) | 0.0143 µM (active)
C=C1C(=O)O[C@@H]2[C@H]3O[C@]3(C)CCC=C(C)CC[C@@H]12 | 21.1 µM (inactive) | 14.5 µM (inactive) | 19 µM (inactive) | 34.2 µM (inactive) | 21.8 µM (inactive) | 8.38 µM (inactive) | 23.6 µM (inactive) |  | 16.2 µM (inactive) | 13.6 µM (inactive) | 8.24 µM (inactive) | 4.69 µM (inactive) | 13.4 µM (inactive) | 18.4 µM (inactive) |  | 14.7 | 9.31 µM (inactive) |  |  | 
